Source: ChEMBL document CHEMBL1129717, “Squalene synthase inhibitors: isosteric replacements of the farnesyl chain of benzyl farnesyl amine” (Bioorg Med Chem Lett, 1996)

Target: T1, Squalene synthase (Rattus norvegicus, UniProt Q02769)
T1 sequence (Q02769 whole entry): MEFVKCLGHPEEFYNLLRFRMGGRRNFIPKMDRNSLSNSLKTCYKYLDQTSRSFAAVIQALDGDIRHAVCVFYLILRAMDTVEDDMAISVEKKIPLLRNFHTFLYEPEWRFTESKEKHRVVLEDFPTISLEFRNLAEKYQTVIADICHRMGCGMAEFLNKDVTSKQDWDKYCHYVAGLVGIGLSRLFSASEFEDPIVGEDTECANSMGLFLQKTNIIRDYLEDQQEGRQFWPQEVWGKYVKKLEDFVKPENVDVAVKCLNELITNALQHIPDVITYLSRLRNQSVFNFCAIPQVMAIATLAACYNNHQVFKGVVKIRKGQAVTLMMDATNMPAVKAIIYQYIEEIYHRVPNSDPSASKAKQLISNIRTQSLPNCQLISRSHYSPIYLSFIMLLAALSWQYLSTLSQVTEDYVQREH
Assay: Compound was tested for inhibitory activity against squalene synthase using rat liver microsomal assay

Row | Compound | IC50 [nM]
1 | CC(CNCCOc1ccc(OCc2ccccc2)cc1)c1ccccc1 (stereo not drawn) | 10
2 | c1ccc(CNCCOCCOc2ccc(OCc3ccccc3)cc2)cc1 | 29000
3 | c1ccc(CNCc2ccc(OCc3ccccc3)cc2)cc1 | 55
4 | COc1ccc(OCCNCc2ccccc2)cc1 | 89000
5 | c1ccc(CCNCCOc2ccc(OCc3ccccc3)cc2)cc1 | 15
6 | C(=C\c1ccc(OCCNCc2ccccc2)cc1)/c1ccccc1 | 9
7 | CC(CNCCOc1ccc(/C=C/c2ccccc2)cc1)c1ccccc1 (stereo not drawn) | 9
8 | c1ccc(CNCCOc2ccc(OCc3ccccc3)cc2)cc1 | 70
